Source: the kinase profiling compilation of Christmann-Franck et al. (2016)

Key:
Assay in all cases: KINOMEscan competition binding
Settings in all cases: compound 10.0 µM
PIM1 (human) = PIM1 (human) (UniProt P11309)
PRKG2 (human) = PRKG2 (human) (UniProt Q13237)
CDK17 (human) = CDK17 (human) (UniProt Q00537)
PKMYT1 (human) = PKMYT1 (human) (UniProt Q99640)
STK36 (human) = STK36 (human) (UniProt Q9NRP7)
CSF1R (human) = CSF1R (human) (UniProt P07333)
NUAK1 (human) = NUAK1 (human) (UniProt O60285)
PIM3 (human) = PIM3 (human) (UniProt Q86V86)
FLT1 (human) = FLT1 (human) (UniProt P17948)
RPS6KA5 KD1 (human) = RPS6KA5 KD1 (human) (UniProt O75582)
LCK (human) = LCK (human) (UniProt P06239)
PTK2 (human) = PTK2 (human) (UniProt Q05397)
PIM2 (human) = PIM2 (human) (UniProt Q9P1W9)
CSNK2A1 (human) = CSNK2A1 (human) (UniProt P68400)
Chain of CSNK2A1 (human) (P68400 whole entry, looked up): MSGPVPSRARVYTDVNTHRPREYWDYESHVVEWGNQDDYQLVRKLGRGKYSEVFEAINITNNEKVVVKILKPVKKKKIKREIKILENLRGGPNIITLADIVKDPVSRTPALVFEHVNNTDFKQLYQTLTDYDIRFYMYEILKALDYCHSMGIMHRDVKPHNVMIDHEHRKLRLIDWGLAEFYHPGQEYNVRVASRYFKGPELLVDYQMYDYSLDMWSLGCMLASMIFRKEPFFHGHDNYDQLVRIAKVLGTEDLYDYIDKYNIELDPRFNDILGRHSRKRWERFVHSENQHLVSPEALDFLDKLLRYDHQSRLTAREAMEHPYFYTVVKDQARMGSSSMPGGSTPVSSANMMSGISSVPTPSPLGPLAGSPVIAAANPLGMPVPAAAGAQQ

NEK2 (human) = NEK2 (human) (UniProt P51955)
MAPK12 (human) = MAPK12 (human) (UniProt P53778)
CSNK2A2 (human) = CSNK2A2 (human) (UniProt P19784)
MAP3K7 (human) = MAP3K7 (human) (UniProt O43318)
MKNK2 (human) = MKNK2 (human) (UniProt Q9HBH9)
CAMK1D (human) = CAMK1D (human) (UniProt Q8IU85)
LTK (human) = LTK (human) (UniProt P29376)
MAPK7 (human) = MAPK7 (human) (UniProt Q13164)
GAK (human) = GAK (human) (UniProt O14976)
Chain of GAK (human) (O14976 whole entry, looked up): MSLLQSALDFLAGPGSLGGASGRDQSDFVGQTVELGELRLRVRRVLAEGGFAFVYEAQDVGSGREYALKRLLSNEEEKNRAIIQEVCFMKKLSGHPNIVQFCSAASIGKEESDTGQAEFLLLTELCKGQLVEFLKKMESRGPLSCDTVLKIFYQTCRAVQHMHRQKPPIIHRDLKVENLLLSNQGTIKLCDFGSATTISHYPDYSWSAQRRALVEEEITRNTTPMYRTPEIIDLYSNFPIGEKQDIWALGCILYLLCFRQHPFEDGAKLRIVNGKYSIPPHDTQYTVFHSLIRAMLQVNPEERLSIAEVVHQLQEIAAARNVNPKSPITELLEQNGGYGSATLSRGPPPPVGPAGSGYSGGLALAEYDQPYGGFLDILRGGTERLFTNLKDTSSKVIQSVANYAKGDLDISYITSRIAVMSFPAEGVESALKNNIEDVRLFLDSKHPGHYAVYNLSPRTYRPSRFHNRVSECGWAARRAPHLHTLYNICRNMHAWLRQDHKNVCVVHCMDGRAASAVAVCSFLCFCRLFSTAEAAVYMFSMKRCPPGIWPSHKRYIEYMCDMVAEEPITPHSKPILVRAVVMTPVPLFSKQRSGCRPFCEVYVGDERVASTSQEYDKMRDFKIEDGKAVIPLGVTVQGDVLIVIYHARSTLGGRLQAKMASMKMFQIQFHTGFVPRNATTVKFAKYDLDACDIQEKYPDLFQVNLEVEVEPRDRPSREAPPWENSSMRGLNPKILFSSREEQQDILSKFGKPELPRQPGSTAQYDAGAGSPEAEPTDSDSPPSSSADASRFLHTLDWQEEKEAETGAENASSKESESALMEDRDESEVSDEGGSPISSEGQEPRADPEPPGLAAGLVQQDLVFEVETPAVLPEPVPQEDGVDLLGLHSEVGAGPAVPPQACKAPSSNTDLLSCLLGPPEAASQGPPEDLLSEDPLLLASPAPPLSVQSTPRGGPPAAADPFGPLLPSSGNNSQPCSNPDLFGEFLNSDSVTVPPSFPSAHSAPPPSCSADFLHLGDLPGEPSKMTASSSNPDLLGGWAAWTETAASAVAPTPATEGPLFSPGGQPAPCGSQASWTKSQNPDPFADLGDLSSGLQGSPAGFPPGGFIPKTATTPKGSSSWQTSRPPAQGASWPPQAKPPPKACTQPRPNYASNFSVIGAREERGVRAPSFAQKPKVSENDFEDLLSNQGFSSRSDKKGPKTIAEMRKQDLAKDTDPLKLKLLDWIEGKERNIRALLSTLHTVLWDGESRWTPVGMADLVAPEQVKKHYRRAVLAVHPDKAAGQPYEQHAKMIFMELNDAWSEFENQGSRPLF

PRKCH (human) = PRKCH (human) (UniProt P24723)
AKT1 (human) = AKT1 (human) (UniProt P31749)
LYN (human) = LYN (human) (UniProt P07948)
EPHA8 (human) = EPHA8 (human) (UniProt P29322)
TAOK1 (human) = TAOK1 (human) (UniProt Q7L7X3)
Chain of TAOK1 (human) (Q7L7X3 whole entry, looked up): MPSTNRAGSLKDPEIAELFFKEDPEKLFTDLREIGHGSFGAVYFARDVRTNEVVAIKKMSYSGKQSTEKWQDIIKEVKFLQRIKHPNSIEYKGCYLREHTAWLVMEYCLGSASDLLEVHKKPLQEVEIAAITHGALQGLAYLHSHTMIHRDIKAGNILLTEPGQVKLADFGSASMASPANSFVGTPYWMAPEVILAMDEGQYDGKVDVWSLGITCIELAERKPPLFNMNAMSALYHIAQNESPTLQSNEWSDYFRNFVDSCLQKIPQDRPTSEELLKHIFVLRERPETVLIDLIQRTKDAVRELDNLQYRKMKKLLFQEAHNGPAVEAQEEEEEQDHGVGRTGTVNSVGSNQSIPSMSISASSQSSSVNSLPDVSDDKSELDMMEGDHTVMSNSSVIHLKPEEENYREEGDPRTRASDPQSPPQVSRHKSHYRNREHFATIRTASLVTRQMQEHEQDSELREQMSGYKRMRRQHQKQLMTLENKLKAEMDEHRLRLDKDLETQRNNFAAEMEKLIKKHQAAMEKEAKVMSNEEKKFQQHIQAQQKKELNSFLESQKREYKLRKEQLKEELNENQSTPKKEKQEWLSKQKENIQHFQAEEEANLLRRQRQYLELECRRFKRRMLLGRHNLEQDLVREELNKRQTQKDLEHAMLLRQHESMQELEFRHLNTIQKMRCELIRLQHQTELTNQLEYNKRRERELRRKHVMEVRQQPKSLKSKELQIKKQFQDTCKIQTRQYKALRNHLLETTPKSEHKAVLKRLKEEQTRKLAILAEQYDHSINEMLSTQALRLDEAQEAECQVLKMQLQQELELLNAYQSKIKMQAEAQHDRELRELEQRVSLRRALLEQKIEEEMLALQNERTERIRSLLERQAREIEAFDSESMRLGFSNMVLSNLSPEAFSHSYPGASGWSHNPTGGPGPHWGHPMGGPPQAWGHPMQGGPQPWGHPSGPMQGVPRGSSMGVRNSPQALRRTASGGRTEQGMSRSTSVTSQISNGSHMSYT

LIMK1 (human) = LIMK1 (human) (UniProt P53667)
NLK (human) = NLK (human) (UniProt Q9UBE8)
PRKCE (human) = PRKCE (human) (UniProt Q02156)
MAPK8 (human) = MAPK8 (human) (UniProt P45983)
GSK3B (human) = GSK3B (human) (UniProt P49841)
Chain of GSK3B (human) (P49841 whole entry, looked up): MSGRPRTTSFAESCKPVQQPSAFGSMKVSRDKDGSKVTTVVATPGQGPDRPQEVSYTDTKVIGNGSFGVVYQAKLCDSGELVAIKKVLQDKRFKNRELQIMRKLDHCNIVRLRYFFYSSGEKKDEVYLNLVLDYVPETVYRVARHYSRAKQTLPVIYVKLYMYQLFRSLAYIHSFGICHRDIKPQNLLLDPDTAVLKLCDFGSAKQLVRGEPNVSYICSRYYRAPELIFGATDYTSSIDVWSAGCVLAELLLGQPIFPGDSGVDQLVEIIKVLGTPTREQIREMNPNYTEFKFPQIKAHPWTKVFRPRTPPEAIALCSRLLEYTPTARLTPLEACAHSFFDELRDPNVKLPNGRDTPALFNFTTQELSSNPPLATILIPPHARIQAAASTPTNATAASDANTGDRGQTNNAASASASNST

ULK1 (human) = ULK1 (human) (UniProt O75385)
Chain of ULK1 (human) (O75385 whole entry, looked up): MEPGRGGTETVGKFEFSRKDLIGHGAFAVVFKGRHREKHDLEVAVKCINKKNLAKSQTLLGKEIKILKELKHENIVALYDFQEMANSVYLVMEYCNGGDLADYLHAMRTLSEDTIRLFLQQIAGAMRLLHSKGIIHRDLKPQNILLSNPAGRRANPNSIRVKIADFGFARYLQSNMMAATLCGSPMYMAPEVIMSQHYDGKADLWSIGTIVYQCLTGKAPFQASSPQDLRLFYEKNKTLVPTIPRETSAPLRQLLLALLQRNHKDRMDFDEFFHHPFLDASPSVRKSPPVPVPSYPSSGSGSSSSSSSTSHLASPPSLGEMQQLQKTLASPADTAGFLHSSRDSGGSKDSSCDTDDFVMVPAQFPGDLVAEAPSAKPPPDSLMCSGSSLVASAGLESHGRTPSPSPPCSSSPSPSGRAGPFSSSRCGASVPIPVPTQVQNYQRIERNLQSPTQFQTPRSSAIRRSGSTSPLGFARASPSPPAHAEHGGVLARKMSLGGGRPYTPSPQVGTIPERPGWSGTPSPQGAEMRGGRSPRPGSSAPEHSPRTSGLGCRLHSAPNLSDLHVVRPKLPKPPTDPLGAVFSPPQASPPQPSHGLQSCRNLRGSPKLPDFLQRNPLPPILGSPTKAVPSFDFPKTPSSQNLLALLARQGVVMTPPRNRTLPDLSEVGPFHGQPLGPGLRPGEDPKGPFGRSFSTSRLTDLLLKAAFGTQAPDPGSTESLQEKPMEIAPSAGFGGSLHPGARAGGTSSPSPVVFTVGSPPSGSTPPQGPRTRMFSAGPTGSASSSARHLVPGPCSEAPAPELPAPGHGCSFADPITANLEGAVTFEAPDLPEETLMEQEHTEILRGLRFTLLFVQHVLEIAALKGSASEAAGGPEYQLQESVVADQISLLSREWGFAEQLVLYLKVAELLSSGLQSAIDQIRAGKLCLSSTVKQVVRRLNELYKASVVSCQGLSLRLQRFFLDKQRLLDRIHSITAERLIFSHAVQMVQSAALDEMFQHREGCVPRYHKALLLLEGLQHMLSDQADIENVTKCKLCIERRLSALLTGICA

EPHB4 (human) = EPHB4 (human) (UniProt P54760)
FES (human) = FES (human) (UniProt P07332)
[1] = tested on: FLT3 (human), P36888 [ITD]
PAK3 (human) = PAK3 (human) (UniProt O75914)
TEK (human) = TEK (human) (UniProt Q02763)
EPHB1 (human) = EPHB1 (human) (UniProt P54762)
PAK7 (human) = PAK7 (human) (UniProt Q9P286)
Chain of PAK7 (human) (Q9P286 whole entry, looked up): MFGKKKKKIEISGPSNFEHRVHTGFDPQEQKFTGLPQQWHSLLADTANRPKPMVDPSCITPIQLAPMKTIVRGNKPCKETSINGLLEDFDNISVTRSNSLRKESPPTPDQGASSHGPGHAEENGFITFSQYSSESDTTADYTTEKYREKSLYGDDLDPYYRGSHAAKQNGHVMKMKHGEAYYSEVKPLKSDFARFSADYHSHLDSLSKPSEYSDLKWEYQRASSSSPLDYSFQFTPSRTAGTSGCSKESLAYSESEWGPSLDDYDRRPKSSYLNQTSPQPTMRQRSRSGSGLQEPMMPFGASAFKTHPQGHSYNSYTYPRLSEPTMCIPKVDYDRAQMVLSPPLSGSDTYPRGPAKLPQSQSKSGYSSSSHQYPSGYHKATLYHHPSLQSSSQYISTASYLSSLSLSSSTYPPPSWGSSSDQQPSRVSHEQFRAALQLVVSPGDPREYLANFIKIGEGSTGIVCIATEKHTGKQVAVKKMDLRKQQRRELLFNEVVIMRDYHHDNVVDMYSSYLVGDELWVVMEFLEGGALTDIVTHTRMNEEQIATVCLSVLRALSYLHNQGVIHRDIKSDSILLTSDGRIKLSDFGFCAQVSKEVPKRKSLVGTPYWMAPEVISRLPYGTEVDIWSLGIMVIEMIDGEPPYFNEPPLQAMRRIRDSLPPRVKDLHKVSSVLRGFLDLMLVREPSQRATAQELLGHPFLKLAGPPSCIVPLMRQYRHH

Cn1c(=O)n(-c2ccc(C(C)(C)C#N)cc2)c2c3cc(-c4cnc5ccccc5c4)ccc3ncc21
kinase still bound, per cent of control (PIM1 (human)): 100% | kinase still bound, per cent of control (PRKG2 (human)): 100% | kinase still bound, per cent of control (CDK17 (human)): 100% | kinase still bound, per cent of control (PKMYT1 (human)): 100% | kinase still bound, per cent of control (STK36 (human)): 100% | kinase still bound, per cent of control (CSF1R (human)): 100% | kinase still bound, per cent of control (NUAK1 (human)): 30% | kinase still bound, per cent of control (PIM3 (human)): 100% | kinase still bound, per cent of control (FLT1 (human)): 100% | kinase still bound, per cent of control (RPS6KA5 KD1 (human)): 100% | kinase still bound, per cent of control (LCK (human)): 100% | kinase still bound, per cent of control (PTK2 (human)): 100% | kinase still bound, per cent of control (PIM2 (human)): 100% | kinase still bound, per cent of control (CSNK2A1 (human)): 100% | kinase still bound, per cent of control (NEK2 (human)): 100% | kinase still bound, per cent of control (MAPK12 (human)): 100% | kinase still bound, per cent of control (CSNK2A2 (human)): 100% | kinase still bound, per cent of control (MAP3K7 (human)): 100% | kinase still bound, per cent of control (MKNK2 (human)): 100% | kinase still bound, per cent of control (CAMK1D (human)): 100% | kinase still bound, per cent of control (LTK (human)): 33% | kinase still bound, per cent of control (MAPK7 (human)): 100% | kinase still bound, per cent of control (GAK (human)): 100% | kinase still bound, per cent of control (PRKCH (human)): 100% | kinase still bound, per cent of control (AKT1 (human)): 100% | kinase still bound, per cent of control (LYN (human)): 100% | kinase still bound, per cent of control (EPHA8 (human)): 100% | kinase still bound, per cent of control (TAOK1 (human)): 100% | kinase still bound, per cent of control (LIMK1 (human)): 100% | kinase still bound, per cent of control (NLK (human)): 100% | kinase still bound, per cent of control (PRKCE (human)): 100% | kinase still bound, per cent of control (MAPK8 (human)): 100% | kinase still bound, per cent of control (GSK3B (human)): 100% | kinase still bound, per cent of control (ULK1 (human)): 100% | kinase still bound, per cent of control (EPHB4 (human)): 100% | kinase still bound, per cent of control (FES (human)): 100% | kinase still bound, per cent of control [1]: 100% | kinase still bound, per cent of control (PAK3 (human)): 100% | kinase still bound, per cent of control (TEK (human)): 100% | kinase still bound, per cent of control (EPHB1 (human)): 100% | kinase still bound, per cent of control (PAK7 (human)): 100%

C=CC(=O)Nc1cccc(Oc2nc(Nc3ccc(N4CCN(C)CC4)cc3OC)ncc2Cl)c1
kinase still bound, per cent of control (PIM1 (human)): 100% | kinase still bound, per cent of control (PRKG2 (human)): 100% | kinase still bound, per cent of control (CDK17 (human)): 100% | kinase still bound, per cent of control (PKMYT1 (human)): 100% | kinase still bound, per cent of control (STK36 (human)): 100% | kinase still bound, per cent of control (CSF1R (human)): 14% | kinase still bound, per cent of control (NUAK1 (human)): 0.65% | kinase still bound, per cent of control (PIM3 (human)): 100% | kinase still bound, per cent of control (FLT1 (human)): 100% | kinase still bound, per cent of control (RPS6KA5 KD1 (human)): 100% | kinase still bound, per cent of control (LCK (human)): 100% | kinase still bound, per cent of control (PTK2 (human)): 0.1% | kinase still bound, per cent of control (PIM2 (human)): 100% | kinase still bound, per cent of control (CSNK2A1 (human)): 100% | kinase still bound, per cent of control (NEK2 (human)): 100% | kinase still bound, per cent of control (MAPK12 (human)): 100% | kinase still bound, per cent of control (CSNK2A2 (human)): 100% | kinase still bound, per cent of control (MAP3K7 (human)): 100% | kinase still bound, per cent of control (MKNK2 (human)): 2% | kinase still bound, per cent of control (CAMK1D (human)): 27% | kinase still bound, per cent of control (LTK (human)): 3.6% | kinase still bound, per cent of control (MAPK7 (human)): 4% | kinase still bound, per cent of control (GAK (human)): 0.45% | kinase still bound, per cent of control (PRKCH (human)): 100% | kinase still bound, per cent of control (AKT1 (human)): 100% | kinase still bound, per cent of control (LYN (human)): 100% | kinase still bound, per cent of control (EPHA8 (human)): 100% | kinase still bound, per cent of control (TAOK1 (human)): 100% | kinase still bound, per cent of control (LIMK1 (human)): 100% | kinase still bound, per cent of control (NLK (human)): 100% | kinase still bound, per cent of control (PRKCE (human)): 100% | kinase still bound, per cent of control (MAPK8 (human)): 17% | kinase still bound, per cent of control (GSK3B (human)): 100% | kinase still bound, per cent of control (ULK1 (human)): 1.6% | kinase still bound, per cent of control (EPHB4 (human)): 100% | kinase still bound, per cent of control (FES (human)): 11% | kinase still bound, per cent of control [1]: 0.85% | kinase still bound, per cent of control (PAK3 (human)): 100% | kinase still bound, per cent of control (TEK (human)): 100% | kinase still bound, per cent of control (EPHB1 (human)): 100% | kinase still bound, per cent of control (PAK7 (human)): 100%
